From PMC6273807, “Identification of Selective ERRγ Inverse Agonists” (Molecules, 2016)

Assays:
[1] = target: T1, CYP1A2 (Homo sapiens, UniProt P05177); assay: CYP inhibition assay, cocktail, human liver microsomes (phenacetin O-deethylase); type: in vitro ADME; conditions: 10 μM, activity in presence of inhibitor as % of control
T1 sequence (P05177 1-516): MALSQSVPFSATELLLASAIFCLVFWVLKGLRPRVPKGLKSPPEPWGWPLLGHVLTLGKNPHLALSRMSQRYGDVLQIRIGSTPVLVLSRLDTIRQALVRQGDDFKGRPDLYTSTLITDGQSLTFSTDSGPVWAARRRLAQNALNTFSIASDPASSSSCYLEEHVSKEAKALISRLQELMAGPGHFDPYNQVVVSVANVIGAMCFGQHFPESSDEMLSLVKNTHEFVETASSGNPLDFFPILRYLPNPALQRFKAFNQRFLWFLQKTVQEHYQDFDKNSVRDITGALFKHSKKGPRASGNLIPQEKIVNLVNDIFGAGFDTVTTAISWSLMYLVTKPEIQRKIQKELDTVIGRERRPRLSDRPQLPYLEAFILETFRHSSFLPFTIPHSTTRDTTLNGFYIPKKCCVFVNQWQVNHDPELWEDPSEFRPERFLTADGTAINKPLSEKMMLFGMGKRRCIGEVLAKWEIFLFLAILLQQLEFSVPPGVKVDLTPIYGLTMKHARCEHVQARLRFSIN

[2] = target: hERG channel (Homo sapiens, UniProt Q12809); assay: hERG channel binding assay (predictor hERG fluorescence polarization)
Sequence of hERG channel (Q12809 whole entry): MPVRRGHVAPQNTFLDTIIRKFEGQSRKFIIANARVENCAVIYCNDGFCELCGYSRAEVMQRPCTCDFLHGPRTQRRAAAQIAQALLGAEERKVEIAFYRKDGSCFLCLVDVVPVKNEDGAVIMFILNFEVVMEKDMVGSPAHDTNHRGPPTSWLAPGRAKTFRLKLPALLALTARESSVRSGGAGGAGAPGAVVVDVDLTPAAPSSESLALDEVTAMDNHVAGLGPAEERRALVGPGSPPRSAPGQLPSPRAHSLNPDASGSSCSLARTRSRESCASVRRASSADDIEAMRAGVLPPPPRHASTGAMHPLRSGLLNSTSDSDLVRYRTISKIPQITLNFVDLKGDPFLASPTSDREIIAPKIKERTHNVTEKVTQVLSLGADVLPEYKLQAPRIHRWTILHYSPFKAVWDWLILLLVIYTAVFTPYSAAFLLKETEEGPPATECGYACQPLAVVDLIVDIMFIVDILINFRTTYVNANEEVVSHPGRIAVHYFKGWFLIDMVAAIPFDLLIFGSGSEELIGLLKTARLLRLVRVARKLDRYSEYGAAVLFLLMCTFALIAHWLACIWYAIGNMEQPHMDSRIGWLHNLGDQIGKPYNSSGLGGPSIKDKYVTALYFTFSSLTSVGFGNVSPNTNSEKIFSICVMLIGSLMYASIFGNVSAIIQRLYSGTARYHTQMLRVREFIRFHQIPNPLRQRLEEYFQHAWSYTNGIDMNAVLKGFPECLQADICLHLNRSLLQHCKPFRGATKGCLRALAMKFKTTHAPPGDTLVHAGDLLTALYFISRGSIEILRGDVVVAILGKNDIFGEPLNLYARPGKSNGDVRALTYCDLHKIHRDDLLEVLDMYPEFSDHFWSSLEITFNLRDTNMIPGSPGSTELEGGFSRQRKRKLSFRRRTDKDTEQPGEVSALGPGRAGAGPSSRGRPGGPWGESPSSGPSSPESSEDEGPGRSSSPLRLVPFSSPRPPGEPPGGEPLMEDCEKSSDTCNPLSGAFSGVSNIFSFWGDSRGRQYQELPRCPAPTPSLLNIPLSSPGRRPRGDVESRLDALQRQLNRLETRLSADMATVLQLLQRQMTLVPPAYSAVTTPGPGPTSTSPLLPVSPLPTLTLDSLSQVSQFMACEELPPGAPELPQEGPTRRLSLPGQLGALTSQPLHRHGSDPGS

[3] = target: T2, ERRβ (Homo sapiens, UniProt O95718); assay: TR-FRET (LanthaScreen) ERRβ binding assay; conditions: maximum concentration tested 10 μM
T2 construct: purchased Life Technologies
T2 sequence (O95718 208-432 limits assumed): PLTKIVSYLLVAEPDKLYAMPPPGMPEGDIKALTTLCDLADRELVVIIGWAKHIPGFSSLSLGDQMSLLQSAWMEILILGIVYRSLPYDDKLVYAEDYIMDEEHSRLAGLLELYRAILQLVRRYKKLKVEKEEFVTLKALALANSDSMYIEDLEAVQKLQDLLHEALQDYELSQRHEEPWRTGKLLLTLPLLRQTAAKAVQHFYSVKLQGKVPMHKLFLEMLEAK
Method: (§1) ERRγ binding assay was conducted with Lantascreen assay system (Life Technologies, Grand Island, NY, USA), which was based on TR-FRET, followed by manufacturer’s instruction. Briefly, compounds were serially diluted with 2-fold staring from 10 μM and 10 μL of each diluent was added in 384 well plate. Then, GST-conjugated ERRγ LBD (ligand-binding domain) was added to be 5 nM. Next, the mixture of fluorescien-conjugated coactivator PGC1a (final concentration to be 500 nM) and Tb-a-GST antibody (final concentration to be 5 nM) was added. The reaction mixture was incubated at rt in dark state for 1 h.
(§2) ERRs and ERα binding assay used same assay system as ERRγ’s, Lanthascreen assay system. Therefore, procedure was same as ERRγ binding assay except tested enzymes (ERRα, ERRβ, ERα). Used reference compounds were 4-OHT 1 for ERα and ERRβ binding assay, and XCT790 for ERRα binding assay.

[4] = target: T3, ERRγ (Homo sapiens, UniProt P62508); assay: ERRγ functional assay: GAL4-ERRγ luciferase reporter gene in AD293 cells; type: cell-based
T3 sequence (P62508 233-458 limits assumed): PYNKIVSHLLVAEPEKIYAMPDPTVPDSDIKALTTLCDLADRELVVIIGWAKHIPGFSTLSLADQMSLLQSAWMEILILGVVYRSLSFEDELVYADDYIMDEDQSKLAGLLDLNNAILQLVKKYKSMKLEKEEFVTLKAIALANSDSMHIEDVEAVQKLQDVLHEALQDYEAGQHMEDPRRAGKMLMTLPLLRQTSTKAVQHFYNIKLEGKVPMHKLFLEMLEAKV
Method: Along with the binding assay campaign, functional activity was determined in order to validate the utility of the binding affinity in a cellular context as described in the Experimental.
Figure 2 Cell based reporter-gene assay screening of 16 analogs ERRγ binding activity in cell was measured by luciferase activity using co-transfection system with GAL4-ERRγ and pFR-luciferase reporter gene.
AD293 cells were cultured in Dulbecco’ modified Eagle medium (DMEM) High glucose supplemented with 0.5% FBS (Hyclone, Logan, UT, USA). After 24 h, culture media was changed with DMEM High glucose containing 10% FBS. DNA constructs, which includes pCMX-Gal4-ERRγ, pFR-luciferase reporter plasmid, pCMV-β-gal were transiently transfected into AD293 cells using TransIT-LT1 transfection reagent (Mirus, Madison, WI, USA) for 24 h. Then, transfected cells were treated with compounds for 24 h and harvested for detection of luciferase activity and β-gal activity. All cells were incubated at 37 °C under 5% CO2 in a humidified incubator [5].

[5] = system: CYP3A; assay: CYP inhibition assay, cocktail, human liver microsomes (midazolam 1'-hydroxylase); type: in vitro ADME; conditions: 10 μM, activity in presence of inhibitor as % of control
[6] = target: CYP2D6 (Homo sapiens, UniProt P10635); assay: CYP inhibition assay, cocktail, human liver microsomes (dextromethorphan O-demethylase); type: in vitro ADME; conditions: 10 μM, activity in presence of inhibitor as % of control
Sequence of CYP2D6 (P10635 whole entry): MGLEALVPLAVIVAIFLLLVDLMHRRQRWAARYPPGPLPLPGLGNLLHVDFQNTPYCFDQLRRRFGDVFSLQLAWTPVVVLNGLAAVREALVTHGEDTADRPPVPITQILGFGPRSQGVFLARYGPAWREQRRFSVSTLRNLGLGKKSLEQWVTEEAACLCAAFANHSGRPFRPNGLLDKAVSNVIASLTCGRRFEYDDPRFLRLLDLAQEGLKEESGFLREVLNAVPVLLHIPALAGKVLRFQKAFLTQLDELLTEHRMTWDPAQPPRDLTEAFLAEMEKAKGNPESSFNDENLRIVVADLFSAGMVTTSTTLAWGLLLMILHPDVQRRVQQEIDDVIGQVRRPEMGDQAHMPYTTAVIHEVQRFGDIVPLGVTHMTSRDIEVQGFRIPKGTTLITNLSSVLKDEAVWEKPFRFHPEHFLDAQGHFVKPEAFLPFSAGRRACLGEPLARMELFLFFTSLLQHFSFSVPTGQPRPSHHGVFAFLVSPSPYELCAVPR

[7] = target: CYP2C19 (Homo sapiens, UniProt P33261); assay: CYP inhibition assay, cocktail, human liver microsomes (S-mephenytoin 4-hydroxylase); type: in vitro ADME; conditions: 10 μM, activity in presence of inhibitor as % of control
Sequence of CYP2C19 (P33261 whole entry): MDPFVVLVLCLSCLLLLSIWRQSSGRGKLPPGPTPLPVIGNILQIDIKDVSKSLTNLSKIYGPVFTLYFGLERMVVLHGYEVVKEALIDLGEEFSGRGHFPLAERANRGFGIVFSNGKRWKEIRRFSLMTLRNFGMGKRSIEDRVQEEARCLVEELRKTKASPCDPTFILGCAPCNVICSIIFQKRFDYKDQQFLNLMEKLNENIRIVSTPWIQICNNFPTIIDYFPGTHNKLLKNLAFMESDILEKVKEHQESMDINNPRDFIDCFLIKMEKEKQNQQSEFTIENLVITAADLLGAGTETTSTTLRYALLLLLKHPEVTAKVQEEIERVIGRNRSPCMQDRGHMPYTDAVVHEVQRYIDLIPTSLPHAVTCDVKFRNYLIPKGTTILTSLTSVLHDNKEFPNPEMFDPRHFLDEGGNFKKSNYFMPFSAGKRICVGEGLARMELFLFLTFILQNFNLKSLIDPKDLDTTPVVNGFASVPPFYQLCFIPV

[8] = target: T4, ERRγ (Homo sapiens, UniProt P62508); assay: TR-FRET (LanthaScreen) ERRγ binding assay; conditions: Table 1 screening; 2-fold serial dilution from 10 μM; read-out: ERRγ, IC50 (binding inhibition of ERRγ binding activity)
T4 construct: purchased Life Technologies
T4 sequence (P62508 233-457 limits assumed): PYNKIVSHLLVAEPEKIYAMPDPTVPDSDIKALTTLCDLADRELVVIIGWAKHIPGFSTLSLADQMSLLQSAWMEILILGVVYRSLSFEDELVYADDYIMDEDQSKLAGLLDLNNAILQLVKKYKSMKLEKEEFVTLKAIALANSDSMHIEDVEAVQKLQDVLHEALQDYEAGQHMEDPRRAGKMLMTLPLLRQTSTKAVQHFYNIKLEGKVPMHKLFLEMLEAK
Method: Initials creening was conducted using a well established TR-FRET based ERRγ binding assay as described in the Experimental section at a concentration of 10 μM. Serial dilutions of the synthesized compounds were used to calculate IC50 values for the binding affinity with ERRγ.
as §1

[9] = target: CYP2C9 (Homo sapiens, UniProt P11712); assay: CYP inhibition assay, cocktail, human liver microsomes (tolbutamide 4-hydroxylase); type: in vitro ADME
Sequence of CYP2C9 (P11712 whole entry): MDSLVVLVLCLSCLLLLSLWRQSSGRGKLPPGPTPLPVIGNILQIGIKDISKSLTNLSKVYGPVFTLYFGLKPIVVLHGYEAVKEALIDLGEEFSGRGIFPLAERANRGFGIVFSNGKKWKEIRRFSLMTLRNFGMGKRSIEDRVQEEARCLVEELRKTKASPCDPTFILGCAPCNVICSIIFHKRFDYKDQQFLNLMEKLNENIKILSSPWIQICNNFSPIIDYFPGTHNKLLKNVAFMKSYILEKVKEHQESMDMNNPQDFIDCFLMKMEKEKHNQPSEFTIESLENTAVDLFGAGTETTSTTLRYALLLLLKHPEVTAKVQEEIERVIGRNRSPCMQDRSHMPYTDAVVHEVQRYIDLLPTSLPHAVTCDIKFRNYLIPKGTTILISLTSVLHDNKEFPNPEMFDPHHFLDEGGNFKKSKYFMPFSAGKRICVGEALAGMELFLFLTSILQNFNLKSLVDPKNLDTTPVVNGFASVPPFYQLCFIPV

[10] = target: T5, ERRα (Homo sapiens, UniProt P11474); assay: TR-FRET (LanthaScreen) ERRα binding assay; conditions: maximum concentration tested 10 μM
T5 construct: purchased Life Technologies
T5 sequence (P11474 193-421 limits assumed): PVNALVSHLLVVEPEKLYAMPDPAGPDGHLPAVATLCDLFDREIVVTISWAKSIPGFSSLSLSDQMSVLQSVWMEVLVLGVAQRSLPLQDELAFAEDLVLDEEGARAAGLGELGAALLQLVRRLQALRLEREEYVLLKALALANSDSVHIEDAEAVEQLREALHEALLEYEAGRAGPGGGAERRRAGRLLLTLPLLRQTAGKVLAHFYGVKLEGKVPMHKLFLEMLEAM
Method: as §1, §2

[11] = target: T6, ERα (Homo sapiens, UniProt P03372); assay: TR-FRET (LanthaScreen) ERα binding assay; conditions: maximum concentration tested 10 μM
T6 construct: purchased Life Technologies
T6 sequence (P03372 311-547 limits assumed): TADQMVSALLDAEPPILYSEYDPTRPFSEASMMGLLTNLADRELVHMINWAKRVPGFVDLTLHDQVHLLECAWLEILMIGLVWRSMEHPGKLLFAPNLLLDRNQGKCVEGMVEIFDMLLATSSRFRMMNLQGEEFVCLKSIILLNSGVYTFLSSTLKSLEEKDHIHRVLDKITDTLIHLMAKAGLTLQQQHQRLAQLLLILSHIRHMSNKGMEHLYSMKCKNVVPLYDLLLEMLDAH
Method: as §1, §2

## CN(C)CCOc1ccc(/C(=C(/CCCO)c2ccc3cnn(C)c3c2)c2ccc(O)cc2)cc1 [Compound 15g, (Z)-4-(1-(4-(2-(Dimethylamino)ethoxy)phenyl)-5-hydroxy-2-(1-methyl-1H-indazol-6-yl)pent-1-en-1-yl)phenol]
[1]
  CYP Inhibition (% of Control), 1A2: >100 % of Control
[2]
  IC50: > 30 µM
[3]
  Binding Assay, IC50, ERRβ: no observable affinity
  IC50: > 10 µM
[4]; 10 μM, AD293 cells, 24 h treatment, luciferase activity
  ERRγ Functional Assay at 10 μM (% of Control): 5.4 % of Control
[4]; 10 μM, reporter-gene assay, compared with control ligand 4
  ERRγ functional activity in the cellular system (in words): comparable regression of the ERRγ transcriptional activity
[4]; AD293, 24 h, screening concentration of 10 μM, read-out: transcriptional repression
  inhibition at 10 µM: 95%
[5]
  CYP Inhibition (% of Control), 3A4: 88 % of Control
[6]
  CYP Inhibition (% of Control), 2D6: 99 % of Control
[7]
  CYP Inhibition (% of Control), 2C19: 95 % of Control
[8]
  IC50: 0.44 µM
[9]; 10 μM, human liver microsomes, activity in presence of inhibitor as % of control
  CYP Inhibition (% of Control), 2C9: 83 % of Control
[9]; at a concentration of 10 μM
  inhibition of the CYP 2C9 subtype: 17%
[10]
  Binding Assay, IC50, ERRα: no observable affinity
  IC50: > 10 µM
[11]
  IC50: > 10 µM
